Assay results from the NIST ThermoML archive (doi:10.1016/j.jct.2017.07.008).
± gives the expanded uncertainty stated by the source.

Experiment: refractive index (Na D-line) (dimensionless)
Conditions: 100 kPa, Liquid, Standard Abbe refractometry

O=Cc1cccs1 [2-thiophenealdehyde]
Conditions	refractive index
283.15 K	1.5924 ± 0.0004
285.65 K	1.5912 ± 0.0004
288.15 K	1.59 ± 0.0004
290.65 K	1.5888 ± 0.0004
293.15 K	1.5876 ± 0.0004
295.65 K	1.5864 ± 0.0004
298.15 K	1.5853 ± 0.0004
300.65 K	1.5841 ± 0.0004
303.15 K	1.5829 ± 0.0004
305.65 K	1.5817 ± 0.0004
308.15 K	1.5805 ± 0.0004
310.65 K	1.5793 ± 0.0004
313.15 K	1.5781 ± 0.0004
315.65 K	1.5769 ± 0.0004
318.15 K	1.5757 ± 0.0004
320.65 K	1.5745 ± 0.0004
323.15 K	1.5733 ± 0.0004
325.65 K	1.5721 ± 0.0004
328.15 K	1.5709 ± 0.0004
330.65 K	1.5697 ± 0.0004
333.15 K	1.5685 ± 0.0004
335.65 K	1.5674 ± 0.0004
338.15 K	1.5662 ± 0.0004

OCc1cccs1 [2-thiophenemethanol]
Conditions	refractive index
283.15 K	1.5713 ± 0.0004
285.65 K	1.5701 ± 0.0004
288.15 K	1.569 ± 0.0004
290.65 K	1.5679 ± 0.0004
293.15 K	1.5668 ± 0.0004
295.65 K	1.5657 ± 0.0004
298.15 K	1.5646 ± 0.0004
300.65 K	1.5635 ± 0.0004
303.15 K	1.5624 ± 0.0004
305.65 K	1.5613 ± 0.0004
308.15 K	1.5602 ± 0.0004
310.65 K	1.559 ± 0.0004
313.15 K	1.5579 ± 0.0004
315.65 K	1.5568 ± 0.0004
318.15 K	1.5557 ± 0.0004
320.65 K	1.5546 ± 0.0004
323.15 K	1.5535 ± 0.0004
325.65 K	1.5524 ± 0.0004
328.15 K	1.5513 ± 0.0004
330.65 K	1.5502 ± 0.0004
333.15 K	1.5491 ± 0.0004
335.65 K	1.548 ± 0.0004
338.15 K	1.5468 ± 0.0004
